Assay type in all cases: cell-based
Series [1] relates to primary human foreskin fibroblasts. Kind of series: Antagonism of fibroblast activation in presence or absence of TGF-β1 (qRT-PCR, Western blot, immunofluorescence). The conditions noted are these: 10,000 nM ATRA, ± 10 ng/mL TGF-β1, 48 hours. The method, then:
RAR Agonist all-Trans Retinoic Acid Antagonizes Myofibroblast Activation We then wished to see whether another RAR agonist could antagonize myofibroblast activation.
(§1) Cells cultured on glass coverslips were fixed in 4% paraformaldehyde for 30 minutes at room temperature. Cells were blocked in 10% normal goat serum and incubated overnight at 4° C. in solutions of the following primary antibodies: Rabbit monoclonal α-human α-SMA (1:500 dilution, catalog #192455, Cell Signaling Technology, Danvers M A) or mouse α-human COL1A1 (1:1000 dilution, catalog #M-38c, DSHB, Iowa City, IA). The following day, cells were incubated in 1:200 diluted solutions of goat-α-rabbit IgG or donkey-α-mouse IgG Alexafluor 488-conjugated secondary antibodies (A11034 or A21202, Invitrogen) containing Alexafluor 568-conjugated phalloidin (A12380, Invitrogen) for 2 hours in the dark at room temperature, before a 20 minute counterstain in 500 ng/mL DAPI. Coverslips were mounted onto slides in the dark using Fluoro Gel with DABCO (Electron Microscopy Sciences, Hatfield, PA) and imaged on an EVOS-FL imaging system (ThermoFisher).
Harvested scar tissues were incubated in 0.5M ammonium thiocyanate for 20 minutes, followed by mechanical separation of dermis and epidermis using a dissecting microscope. Isolated dermal tissues were minced with a razor blade, submerged in RIPA buffer, and homogenized in the presence of 2 mm zirconia beads using a MagNA Lyser (Roche, Basel, Switzerland). Alternatively, cell culture samples were detached from the culture surface by trypsinization, collected by centrifugation, and lysed in RIPA buffer. Protein concentrations of cell culture and tissue samples were determined using a DC protein assay (BioRad). Five micrograms of total protein were loaded onto polyacrylamide gels and subjected to SDS-PAGE before transfer to nitrocellulose membranes, blocking with 5% dry milk in TBS-T, and probing with target-specific primary antibodies overnight. Species-specific secondary antibody solutions were added to membranes, and chemiluminescent signal was developed with Amersham ECL Western blotting detection reagent using X-ray film.
Primary antibodies used were rabbit anti-α-SMA (1:1000, 19245S, Cell Signaling Technology), rabbit anti-collagen I (1:1000, ab34710, Abcam), mouse anti-collagen I (1:1000, C2456, Sigma-Aldrich), and mouse anti-GAPDH (1:5000, MA5-15738, Invitrogen). Secondary antibodies utilized were HRP goat anti-rabbit IgG(H+L) and horse anti-mouse IgG(H+L) (Vector Laboratories, Newark, CA), both used at 1:5000.

The test system of series [2] is primary human HTS fibroblasts. Kind of series: Collagen I deposition in hypertrophic scar fibroblasts (Western blot, immunofluorescence). Conditions: HTS fibroblasts, ATRA, data not shown. The protocol: (§2) Since overproduction of collagen is characteristic of fibroblasts in tissue fibrosis, including hypertrophic scar and keloid, we wished to determine whether Ch55 also affects deposition of collagen I by these fibroblasts.
as §1, with “Coverslips were mounted onto slides in the dark using Fluoro Gel with DABCO (Electron Microscopy Sciences, Hatfield, PA) and imaged on an EVOS-FL imaging system (ThermoFisher).” left out
(§3) Harvested scar tissues were incubated in 0.5M ammonium thiocyanate for 20 minutes, followed by mechanical separation of dermis and epidermis using a dissecting microscope. […] Protein concentrations of cell culture and tissue samples were determined using a DC protein assay (BioRad). […]

In series [3] the test system is primary human keloid fibroblasts. The series can be described thus: Collagen I deposition in keloid fibroblasts (Western blot, immunofluorescence). The conditions noted are these: keloid fibroblasts, ATRA, data not shown. The protocol: as §2
as §1, with “Coverslips were mounted onto slides in the dark using Fluoro Gel with DABCO (Electron Microscopy Sciences, Hatfield, PA) and imaged on an EVOS-FL imaging system (ThermoFisher).” left out
as §3

Series [4] deals with primary human foreskin fibroblasts. Kind of series: In vitro single-concentration screen of predicted compounds (brightfield, qRT-PCR). The protocol: In order to initially test the identified drugs, we applied each drug or DMSO vehicle control at a single concentration to primary human foreskin fibroblasts in vitro for 24 hours, before harvesting and measuring relative expression of selected myofibroblast marker genes by qRT-PCR. […] None of the drugs tested appeared to affect expression of TGFB1 (the gene encoding transforming growth factor-beta 1) at the examined concentrations.
MATERIALS AND METHODS Materials Emetine dihydrochloride hydrate, homoharringtonine, Ch55 and panobinostat were acquired from Fisher Scientific (Waltham, MA). AZD-7762 was acquired from Selleck Chemicals (Houston, TX). For in vitro work, emetine dihydrochloride hydrate was dissolved in sterile H2O at 50 mM. Homoharringtonine was dissolved in DMSO at 10 mg/mL. Panobinostat was dissolved in DMSO at 425 μM. […] AZD-7762 was dissolved in DMSO at 500 μM. Recombinant human TGF-β1 (Sigma-Aldrich) was dissolved in sterile H2O at 50 µg/mL. All-trans-retinoic acid (Thermo Scientific) was dissolved in DMSO at 10 mM.

The mark [5] stands for this setting: single concentration, 24 hours, vs vehicle.

Each structure is given as a SMILES string. Read-outs that look alike come from different tables or passages of the source.

On to `CC1=C(/C=C/C(C)=C/C=C/C(C)=C/C(=O)O)C(C)(C)CCC1` [ATRA, all-trans retinoic acid], for which, in series [1], the “F-actin stress fiber formation” value is on record as “substantially decreased”; the “collagen I protein (Western blot, immunofluorescence)” value is listed as “substantially decreased”; the “α-SMA protein (Western blot, immunofluorescence)” value was “substantially decreased”. Also, the “expression of collagen I” value in series [2] is reported as “dramatically decreased”. In addition, the “expression of collagen I” value in series [3] is “dramatically decreased”.
Consider `NC(=O)Nc1cc(-c2cccc(F)c2)sc1C(=O)N[C@H]1CCCNC1` [AZD-7762], for which, in series [4] (single concentration, 24 hours), the “downregulation of myofibroblast-associated genes” value is listed as “neither did it appear to downregulate” and the myofibroblast activation entry is “did not show a similar effect of fibroblast activation”.
Consider `CC[C@H]1CN2CCc3cc(OC)c(OC)cc3[C@@H]2C[C@@H]1C[C@H]1NCCc2cc(OC)c(OC)cc21` [emetine], for which, in series [4] (single concentration, 24 hours), the “detachment of cells from the tissue culture plate” value is on record as “notable detachment of cells” and the myofibroblast activation entry is “induced myofibroblast activation”. Moreover, in series [4] (setting [5]), the “CCN2 expression (qRT-PCR)” value is recorded as “increased expression”, the “MMP1 expression (qRT-PCR)” value is “decreased expression” and the “SERPINE1 expression (qRT-PCR)” value is listed as “increased expression”.
Turning to `COC(=O)C[C@](O)(CCCC(C)(C)O)C(=O)O[C@@H]1C(OC)=C[C@]23CCCN2CCc2cc4c(cc2[C@H]13)OCO4` [homoharringtonine], the “detachment of cells from the tissue culture plate” value in series [4] is reported as “notable detachment of cells”.

Source of the values: patent US20240245639A1, “Dermal Application of Retinoic Acid Receptor Agonists for Amelioration of Hypertrophic Scar” (Northwestern University, priority 2023, published 2024).
